Results: the CATMoS acute toxicity set (Mansouri et al. 2021)

Assay: GHS categories as the set defines them, by LD50: 1 up to 5, 2 up to 50, 3 up to 300, 4 up to 2000, 5 above 2000 mg/kg
Conditions: rat; in vivo; po

Structure (SMILES) | GHS category
Cc1cc(C(=O)NCCc2ccc(S(=O)(=O)NC(=O)NN3CCCCCC3)cc2)no1 | 5
C1=CCC(c2ccccc2)CC1 (stereo not given) | 5
CC1(C)C=C(n2ccccc2=O)c2cc(C#N)ccc2C1=O | 3
CN1CC(O)C2=C/C(=N/NC(N)=O)C(=O)C=C21 (stereo not given) | 5
CNCC1CCC(N)C(OC2C(N)CC(N)C(OC3OCC(C)(O)C(NC)C3O)C2O)O1 (stereo not given) | 5
C[C@H]1C[C@@H]2[C@H]([C@@H](O)C[C@@]3(C)[C@H]2CC[C@]3(O)C(=O)COC(=O)CCC(=O)O)[C@@]2(C)C=CC(=O)C=C12 | 5
C/C=C(\C)C(=O)OCCc1ccccc1 | 5
N[C@H](C(=O)O)c1ccc(O)cc1 | 5
O=C(NC(=O)c1c(F)cccc1F)Nc1cc(Cl)c(OC(F)(F)C(F)F)c(Cl)c1 | 5
CCOC(=O)C(=O)Nc1cc(SCCOC(=O)C(=O)OCC)nc(C)n1 | 4
O=C1CCCCCCCCCCCCCCCO1 | 5
CCCCCCCCCCCCOC(=O)C=CC(=O)OCCCCCCCCCCCC | 5
CC(C)C1OCCN1CCO (stereo not given) | 4
CCCCCCCCCCCCCCOC(=O)Cl | 5
O=C(O)Cc1ccc(Cl)cc1Cl | 5
NP(N)(=O)Oc1ccccc1 | 4
Clc1ccc(CN2CCN=C2c2ccccc2)cc1 | 4
Nc1cc(Cl)c(Cl)cc1S(=O)(=O)O | 5
Cc1ncc(CSSSCc2cnc(C)c(O)c2CO)c(CO)c1O | 5
CCCCC/C=C\CCC(CCCCCCCC(=O)O)C(CCCCCCCC)CCCCCCCCC(=O)O (stereo not given) | 5
CCCN[C@H]1CCc2nc(N)sc2C1 | 4
CC[C@H](C)C(=O)O[C@H]1C[C@@H](C)C=C2C=C[C@H](C)[C@H](CC[C@@H]3C[C@@H](O)CC(=O)O3)[C@H]21 | 5
CN(c1ccccc1)S(=O)(=O)c1cc(O)c2c(N=Nc3ccc(NC(=O)CCl)cc3S(=O)(=O)O)c(N)ccc2c1 | 5

Structure (SMILES) | GHS category
COc1ccc(C2(O)c3ccccc3C3=NCCN32)cc1 (stereo not given) | 4
CC(C)(C)OOC(C)(C)C | 5
CC(C)c1c(C(=O)Nc2ccccc2)c(-c2ccccc2)c(-c2ccc(F)cc2)n1CC[C@@H]1C[C@H](CC(=O)OC(C)(C)C)OC(C)(C)O1 | 5
COc1ccc2c(c1)CCN(c1ccccc1)C2c1cccc(C(F)(F)F)c1 (stereo not given) | 4
CCOc1c(N)c2c(c(OCC)c1OCC)C(C1c3c(cc4c(c3OC)OCO4)CCN1C)OC2=O (stereo not given) | 5
Nc1ccc([N+](=O)[O-])cc1O | 5
CCCCCCCCC(C)C | 5
COP(=S)(OC)Oc1ccc(Cl)cc1C#N | 4
NC1=NCC2c3ccccc3Cc3ccccc3N12 (stereo not given) | 4
CCN(CCCCOC(=O)c1ccc(OC)c(OC)c1)C1CCc2cc(OC)ccc2C1 (stereo not given) | 5
O=C1CC(=O)NC(=S)N1 | 5
C=COC(=O)CCCCCCCCCCC | 5
CCCc1c(Cc2ccc(-c3ccccc3-c3nn[nH]n3)cc2)cnc2ncnn12 | 4
CCOC(=O)Oc1ccc(C2(c3ccc(OC(=O)OCC)cc3)C(=O)Nc3c(C)cccc32)cc1 | 5
CCCCCCCCCCCOC(=O)c1ccccc1C(=O)OCCCCCCCCCCC | 5
CC(C)C(=O)c1ccc2cc(CC(=O)O)ccc2c1 | 5
Cc1cc(O)cc(C)c1S(C)(=O)=O | 4
CCCCC(CC)COC(=O)c1ccc(C(=O)OCC(CC)CCCC)c(C(=O)OCC(CC)CCCC)c1 (stereo not given) | 5
Clc1ccc(Cn2ccnc2-c2ccccc2)cc1 | 4
CCCCCCCCCC(=O)OCC(CC)(COC(=O)CCCCCCC)COC(=O)CCCCCCC | 5
CCC(C)(NC(=O)c1cc(Cl)c(C)c(Cl)c1)C(=O)CCl (stereo not given) | 5
CC(=O)Nc1ccc(Cc2ccccn2)c([N+](=O)[O-])c1 | 3
COC(F)(F)C(C(F)(F)F)C(F)(F)F | 3

Structure (SMILES) | GHS category
CC(=O)N1c2ccccc2SC1c1cc([N+](=O)[O-])ccc1OCCCN(C)C1CCCCC1 (stereo not given) | 5
NCCCN(CCO)CCO | 5
C=CC(=O)OCC(CC)(COCC(CC)(COC(=O)C=C)COC(=O)C=C)COC(=O)C=C | 5
CCCCCCCN(CCCCCCC)CC(O)c1cc2ccccc2c2cc(Br)ccc12 (stereo not given) | 5
O=c1[nH]c(=O)n([C@H]2O[C@H](CO)[C@@H](O)[C@@H]2O)cc1/C=C\Br | 5
Cc1ccccc1N1C(=O)c2cc(S(N)(=O)=O)c(Cl)cc2NC1C (stereo not given) | 5
O=C(C=Cc1ccccc1)OCCCc1ccccc1 | 5
Cc1c(C2=C(O)CC(C)(C)CC2=O)c2c(n1-c1ccccc1)CC(C)(C)CC2=O | 5
NC(=O)Oc1ccccc1C(=O)Oc1cc(Cl)ccc1Cl | 5
Fc1ccccc1C1c2cc3c(cc2CCN1c1ccccc1)OCO3 (stereo not given) | 4
CCOC(=O)/C=C(C)/C=C/C=C(C)/C=C/c1c(C)cc(OC)c(C)c1C | 5
CCOC(=O)/C=C(C)/C=C/CC(C)CCCC(C)C (stereo not given) | 5
CCCCCC1=C(CC(=O)OC)CCC1=O | 5
CCN(C(=O)CCCSc1nnnn1C)C1CCCCC1O (stereo not given) | 4
FC(F)(F)C(F)(F)C(F)(F)C(F)(F)C(F)(F)C(F)(F)F | 5
COCCOCCOC(=O)C(=O)Nc1nc(-c2ccccc2)cs1 | 5
CCCCCCOC(=O)CC | 5
CCCCCC1Nc2cc(C(F)(F)F)c(S(N)(=O)=O)cc2S(=O)(=O)N1 (stereo not given) | 5
C=C1NC(=O)C(C)NC(=O)C(C(C)C)NC2C=Cc3c(C(C)O)cc(nc3C2O)C(=O)OC(C)C2NC(=S)c3csc(n3)C(C(C)(O)C(C)O)NC(=O)C3CSC(=N3)C(=CC)NC(=O)C(C(C)O)NC(=O)c3csc(n3)C3(CCC(c4nc(C(N)=O)cs4)NC3c3csc2n3)NC(=O)C(C)NC1=O (stereo not given) | 5
OC1c2ccccc2CCc2ccncc21 (stereo not given) | 5
C=CC(=C)C | 5
CCOC(=O)C(=O)Nc1cc(OC)nc(C)n1 | 4
O=C1c2ccccc2OC1c1ccccc1 (stereo not given) | 5

Structure (SMILES) | GHS category
COc1ccc(-c2nc(C)c(C(N)=O)s2)cc1 | 5
CCCCCCCCCCCCCCCCCCCC | 5
CCCCCCC(C(C)=O)C(=O)OCC (stereo not given) | 5
COc1ccccc1N=Nc1c(O)ccc2ccccc12 | 5
NNC(=O)CCCCC(=O)NN | 5
CCCCCNC(=O)c1cnc2cccc(C)n2c1=O | 3
O=S(=O)([O-])CCC[n+]1ccccc1 | 5
Cc1onc(-c2ccccc2)c1C(=O)N[C@@H]1C(=O)N2[C@@H]1SC(C)(C)[C@@H]2C(=O)O | 5
CC(C)C1=CC23CCC4C(C)(C(=O)N5CCNCC5)CCCC4(C)C2CC1C1C(=O)OC(=O)C13 (stereo not given) | 5
CNC(=O)C(=NNc1ccc(Cl)c(Cl)c1)C(C)=O | 5
CCOC(=O)C(=O)Nc1cc(OC)nc(OC)n1 | 4
Cc1cc(C(=O)Nc2cccc(C)c2C)n[nH]1 | 5
CCc1ccc(CC)cc1 | 5
O=C(Nc1ccc(Cl)cc1)Nc1ccc(Cl)c(Cl)c1 | 5
CCC(=O)/C=C/C=C(\C)CCC=C(C)C | 5
COC12CC(COC3=CC(=O)CC3)CN(C)C1Cc1cn(C(C)(C)C)c3cccc2c13 (stereo not given) | 4
CC(C)OC(=O)N[C@H](C(=O)N[C@H](C)c1nc2ccc(F)cc2s1)C(C)C | 5
CNc1ccc(C(C)=O)cc1O | 5
Cc1nc2ncnn2c(C)c1Cc1ccc(-c2ccccc2-c2nn[nH]n2)cc1 | 4
NC[C@H]1O[C@H](O[C@H]2[C@H](O)[C@@H](O[C@H]3O[C@H](CO)[C@@H](O)[C@H](N)[C@H]3O)[C@H](N)C[C@@H]2N)[C@H](N)C[C@@H]1O | 5
CC(C)(N=C(O)C(Br)C(C)(C)C)c1ccccc1 (stereo not given) | 5
Cc1c(Cl)ccc(OC(C)C(O)=Nc2ccccc2)c1Cl (stereo not given) | 5
COC(=O)Nc1nc2cc(Sc3ccccc3)ccc2[nH]1 | 5

Structure (SMILES) | GHS category
CCCCCCCC1CCCO1 (stereo not given) | 5
OCCCOc1nn(-c2cccc(C(F)(F)F)c2)c2ncccc12 | 4
OCC1=C[C@H](N[C@H]2C[C@H](CO)[C@@H](O[C@@H]3O[C@H](CO)[C@@H](O)[C@H](O)[C@H]3O)[C@H](O)[C@H]2O)[C@H](O)[C@@H](O)[C@@H]1O | 5
CCOC(=O)C(SP(=S)(OC)OC)C(SP(=S)(OC)OC)C(=O)OCC (stereo not given) | 4
C=C(C)C(=O)OCCC(F)(F)C(F)(F)C(F)(F)C(F)(F)C(F)(F)C(F)(F)F | 5
CCC(COC(=O)c1ccccc1C(=O)OCC(CC)CC(C)C)CC(C)C (stereo not given) | 5
CCN(CC)C(C)C(=O)c1ccccc1 (stereo not given) | 4
N[C@@H](Cc1cnc[nH]1)C(=O)O | 5
CCN1CCN(C(=O)N[C@@H](C(=O)N[C@@H]2C(=O)N3C(C(=O)O)=C(CSc4nnnn4C)CS[C@H]23)c2ccc(O)cc2)C(=O)C1=O | 5
CC/C(=C(/CC)c1ccc(O)cc1)c1ccc(O)cc1 | 5
CCC(c1cccc(O)c1)C(CC)c1cccc(O)c1 (stereo not given) | 5
Nc1nc(/C(=C/CC(=O)O)C(=O)N[C@@H]2C(=O)N3C(C(=O)O)=CCS[C@H]23)cs1 | 5
CCOC(=O)C(C)(C)NC(=O)c1cnc2cccc(C)n2c1=O | 3
CCCCC1OC(C)CC(C)(C)O1 (stereo not given) | 5
CCCc1nc2ccnn2c(CCC)c1Cc1ccc(-c2ccccc2-c2nn[nH]n2)cc1 | 4
CN1C(C(=O)Nc2ccccn2)=C(O)c2sc(O)cc2S1(=O)=O | 3
CC(O)CSCCCCCCCCC(C)(C)C (stereo not given) | 5
CC(C)(C)c1ccc(C=O)cc1 | 4
OC1CCC2CCCCC2C1 (stereo not given) | 5
CCCCCCCCCCN(C)CCCCCCCCCC | 4
C=CCOC(=O)Nc1nc(N2CC=CCC2)cc2nc(=O)on12 | 5
CC(C)=CCN(CC=C(C)C)CCC(C)(C#N)c1cccc2ccccc12 (stereo not given) | 4
CC(C)Oc1ccc2c(=O)c(-c3ccccc3)coc2c1 | 5
